According to patent US10730870B2, “Compounds and methods for the enhanced degradation of targeted proteins” (Arvinas, Inc., priority 2015, dated 2020):

Target: VHL (Homo sapiens (Human), UniProt P40337)
Assay: VHL fluorescence polarization (FP) competition assay
Type: binding

Compound | IC50 (1% in DMSO) [nM] | IC50 (10% in DMSO) [nM] | IC50 (0.25% in DMSO) [nM]
CC(C)[C@@H](C(=O)N1C[C@H](O)C[C@H]1C(=O)NCc1ccc(-c2scnc2Br)cc1)N1Cc2ccccc2C1=O [Example 1, (2S,4R)—N-(4-(4-bromothiazol-5-yl)benzyl)-4-hydroxy-1-((S)-3-methyl-2-(1-oxoisoindolin-2-yl)butanoyl)pyrrolidine-2-carboxamide] | 2380 | 2280 | 
CC(C)[C@@H](C(=O)N1C[C@H](O)C[C@H]1C(=O)NCc1ccc(-c2scnc2C2CC2)cc1)N1Cc2ccccc2C1=O [Example 2, (2S,4R)—N-(4-(4-cyclopropylthiazol-5-yl)benzyl)-4-hydroxy-1-((S)-3-methyl-2-(1-oxoisoindolin-2-yl)butanoyl)pyrrolidine-2-carboxamide] | 732 | 533 | 2860
C=Cc1ncsc1-c1ccc(CNC(=O)[C@@H]2C[C@@H](O)CN2C(=O)[C@H](C(C)C)N2Cc3ccccc3C2=O)cc1 [Example 4, (2S,4R)-4-hydroxy-1-((S)-3-methyl-2-(1-oxoisoindolin-2-yl)butanoyl)-N-(4-(4-vinylthiazol-5-yl)benzyl)pyrrolidine-2-carboxamide] | 1220 | 1940 | 3340
CCc1ncsc1-c1ccc(CNC(=O)[C@@H]2C[C@@H](O)CN2C(=O)[C@H](C(C)C)N2Cc3ccccc3C2=O)cc1 [Example 5, (2S,4R)—N-(4-(4-ethylthiazol-5-yl)benzyl)-4-hydroxy-1-((S)-3-methyl-2-(1-oxoisoindolin-2-yl)butanoyl)pyrrolidine-2-carboxamide] | 799 | 1580 | 7720
Cc1ncsc1-c1ccc(CNC(=O)[C@@H]2C[C@@H](O)CN2C(=O)[C@H](C(C)C)N2Cc3ccccc3C2=O)cc1 [Example 6, (2S,4R)-4-hydroxy-1-((S)-3-methyl-2-(1-oxoisoindolin-2-yl)butanoyl)-N-(4-(4-methylthiazol-5-yl)benzyl)pyrrolidine-2-carboxamide] | 697 | 1480 | 6370
Cc1ncsc1-c1ccc(CNC(=O)[C@@H]2C[C@@H](O)CN2C(=O)[C@H](C(C)C)N2Cc3cccc(Cl)c3C2=O)cc1 [Example 7, (2S,4R)-1-((S)-2-(7-cloro-1-oxoisoindolin-2-yl)-3-methylbutanoyl)-4-hydroxy-N-(4-(4-methylthiazol-5-yl)benzyl)pyrrolidine-2-carboxamide] | 7510 | 8520 | 
Cc1ncsc1-c1ccc(CNC(=O)[C@@H]2C[C@@H](O)CN2C(=O)[C@H](C(C)C)N2Cc3cccc(F)c3C2=O)cc1 [Example 8, (2S,4R)-1-((S)-2-(7-fluoro-1-oxoisoindolin-2-yl)-3-methylbutanoyl)-4-hydroxy-N-(4-(4-methylthiazol-5-yl)benzyl)pyrrolidine-2-carboxamide] | 619 | 1330 | 3040
Cc1ncsc1-c1ccc(CNC(=O)[C@@H]2C[C@@H](O)CN2C(=O)[C@H](C(C)C)N2Cc3ccc(F)cc3C2=O)cc1 [Example 9] | 309 | 498 | 1280
Cc1ncsc1-c1ccc(CNC(=O)[C@@H]2C[C@@H](O)CN2C(=O)[C@@H](C(C)C)N2Cc3ccc(F)cc3C2=O)cc1 [Example 10, (2S,4R)-1-((R)-2-(6-fluoro-1-oxoisoindolin-2-yl)-3-methylbutanoyl)-4-hydroxy-N-(4-(4-methylthiazol-5-yl)benzyl)pyrrolidine-2-carboxamide] | ~6730 | 295000 | 
CCCC(=O)N[C@H](C(=O)N1C[C@H](O)C[C@H]1C(=O)NCc1ccc(-c2scnc2C)cc1)C(C)(C)C [Example 13, (2S,4R)-1-((S)-2-butyramido-3,3-dimethylbutanoyl)-4-hydroxy-N-(4-(4-methylthiazol-5-yl)benzyl)pyrrolidine-2-carboxamide] | 1340 | 2940 | 3370
